Data taken from the supplement of paper PMC10307832.

Tests used:
Assay in all cases: relative viability (nuclei count vs DMSO), 5 days (fraction); higher = more cells survive
[1] = system: NCI-H1666
In short: (§1)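 After 5 days of treatment, lung cancer cells in 1536-well plates were fixed and stained in a single step (final 0.05% Triton X-100, 1% formaldehyde, 1 ug/ml Hoechst) and their nuclei counted on 4× images. Treatment had been applied by pin tool the day after seeding as one drug alone or as a fixed anchor-drug dose with five library-drug doses (not always all listed) in √10 steps. Relative viability is the nuclei count of treated wells divided by that of vehicle wells, and values are medians of duplicate plates.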

[2] = system: LK-2
In short: as §1

[3] = system: RERF-LC-KJ
In short: as §1

[4] = system: LU99A
In short: as §1

[5] = system: HCC-366
In short: as §1

[6] = system: NCI-H23
In short: as §1

[7] = system: NCI-H2085
In short: as §1

[8] = system: LCLC-103H
In short: as §1

[9] = system: LOU-NH91
In short: as §1

[10] = system: LXF-289
In short: as §1

[11] = system: NCI-H2126
In short: as §1

[12] = system: HCC-44
In short: as §1

[13] = system: NCI-H2405
In short: as §1

[14] = system: SW 1573
In short: as §1

[15] = system: NCI-H1975
In short: as §1

[16] = system: HCC-78
In short: as §1

[17] = system: SK-LU-1
In short: as §1

[18] = system: EPLC-272H
In short: as §1

[19] = system: EMC-BAC-2
In short: as §1

[20] = system: NCI-H3122
In short: as §1

[21] = system: NCI-H1563
In short: as §1

[22] = system: HCC-827
In short: as §1

Structure (SMILES): COc1cc(N2CCC(C(N)=O)CC2)ccc1Nc1nc(N)c(Cl)c(Nc2ccccc2S(=O)(=O)C(C)C)n1 [HG-5-88-01] + Cc1nc(NC(=O)N2CCC[C@H]2C(N)=O)sc1-c1ccnc(C(C)(C)C(F)(F)F)c1 [Alpelisib] (partner 2 µM)
- relative viability ([1]; first compound 0.04 µM): 1
- relative viability ([1]; first compound 0.1265 µM): 1.02
- relative viability ([1]; first compound 0.4 µM): 0.816
- relative viability ([1]; first compound 1.265 µM): 0.706
- relative viability ([1]; first compound 4 µM): 0.657
- relative viability ([2]; first compound 0.04 µM): 1.16
- relative viability ([2]; first compound 0.1265 µM): 1.23
- relative viability ([2]; first compound 0.4 µM): 0.975
- relative viability ([2]; first compound 1.265 µM): 0.632
- relative viability ([2]; first compound 4 µM): 1.8
- relative viability ([3]; first compound 0.04 µM): 0.838
- relative viability ([3]; first compound 0.1265 µM): 0.675
- relative viability ([3]; first compound 0.4 µM): 0.935
- relative viability ([3]; first compound 1.265 µM): 0.551
- relative viability ([3]; first compound 4 µM): 0.874
- relative viability ([4]; first compound 0.04 µM): 0.561
- relative viability ([4]; first compound 0.1265 µM): 0.514
- relative viability ([4]; first compound 0.4 µM): 0.513
- relative viability ([4]; first compound 1.265 µM): 0.552
- relative viability ([4]; first compound 4 µM): 0.422
- relative viability ([5]; first compound 0.04 µM): 0.49
- relative viability ([5]; first compound 0.1265 µM): 0.382
- relative viability ([5]; first compound 0.4 µM): 0.309
- relative viability ([5]; first compound 1.265 µM): 0.418
- relative viability ([5]; first compound 4 µM): 0.327
- relative viability ([6]; first compound 0.04 µM): 0.832
- relative viability ([6]; first compound 0.1265 µM): 0.738
- relative viability ([6]; first compound 0.4 µM): 0.67
- relative viability ([6]; first compound 1.265 µM): 0.847
- relative viability ([6]; first compound 4 µM): 0.496
- relative viability ([7]; first compound 0.04 µM): 1.05
- relative viability ([7]; first compound 0.1265 µM): 1
- relative viability ([7]; first compound 0.4 µM): 0.908
- relative viability ([7]; first compound 1.265 µM): 0.973
- relative viability ([7]; first compound 4 µM): 0.902
- relative viability ([8]; first compound 0.04 µM): 0.938
- relative viability ([8]; first compound 0.1265 µM): 0.968
- relative viability ([8]; first compound 0.4 µM): 0.949
- relative viability ([8]; first compound 1.265 µM): 0.907
- relative viability ([8]; first compound 4 µM): 1.2
- relative viability ([9]; first compound 0.04 µM): 0.713
- relative viability ([9]; first compound 0.1265 µM): 0.67
- relative viability ([9]; first compound 0.4 µM): 0.659
- relative viability ([9]; first compound 1.265 µM): 0.545
- relative viability ([9]; first compound 4 µM): 0.528
- relative viability ([10]; first compound 0.04 µM): 1.05
- relative viability ([10]; first compound 0.1265 µM): 1.04
- relative viability ([10]; first compound 0.4 µM): 1
- relative viability ([10]; first compound 1.265 µM): 1.08
- relative viability ([10]; first compound 4 µM): 0.968
- relative viability ([11]; first compound 0.04 µM): 0.81
- relative viability ([11]; first compound 0.1265 µM): 0.79
- relative viability ([11]; first compound 0.4 µM): 0.774
- relative viability ([11]; first compound 1.265 µM): 0.681
- relative viability ([11]; first compound 4 µM): 0.716
- relative viability ([12]; first compound 0.04 µM): 0.858
- relative viability ([12]; first compound 0.1265 µM): 0.824
- relative viability ([12]; first compound 0.4 µM): 0.701
- relative viability ([12]; first compound 1.265 µM): 0.68
- relative viability ([12]; first compound 4 µM): 0.471
- relative viability ([13]; first compound 0.04 µM): 0.749
- relative viability ([13]; first compound 0.1265 µM): 0.832
- relative viability ([13]; first compound 0.4 µM): 0.726
- relative viability ([13]; first compound 1.265 µM): 0.418
- relative viability ([13]; first compound 4 µM): 0.794
- relative viability ([14]; first compound 0.04 µM): 0.866
- relative viability ([14]; first compound 0.1265 µM): 0.571
- relative viability ([14]; first compound 0.4 µM): 0.866
- relative viability ([14]; first compound 1.265 µM): 0.632
- relative viability ([14]; first compound 4 µM): 0.605
- relative viability ([15]; first compound 0.04 µM): 0.597
- relative viability ([15]; first compound 0.1265 µM): 0.62
- relative viability ([15]; first compound 0.4 µM): 0.555
- relative viability ([15]; first compound 1.265 µM): 0.516
- relative viability ([15]; first compound 4 µM): 0.264
- relative viability ([16]; first compound 0.04 µM): 0.352
- relative viability ([16]; first compound 0.1265 µM): 0.304
- relative viability ([16]; first compound 0.4 µM): 0.263
- relative viability ([16]; first compound 1.265 µM): 0.207
- relative viability ([16]; first compound 4 µM): 0.241
- relative viability ([17]; first compound 0.04 µM): 1.18
- relative viability ([17]; first compound 0.1265 µM): 0.988
- relative viability ([17]; first compound 0.4 µM): 0.895
- relative viability ([17]; first compound 1.265 µM): 0.966
- relative viability ([17]; first compound 4 µM): 0.797
- relative viability ([18]; first compound 0.04 µM): 0.931
- relative viability ([18]; first compound 0.1265 µM): 0.838
- relative viability ([18]; first compound 0.4 µM): 1.12
- relative viability ([18]; first compound 1.265 µM): 0.804
- relative viability ([18]; first compound 4 µM): 0.253
- relative viability ([19]; first compound 0.04 µM): 0.729
- relative viability ([19]; first compound 0.1265 µM): 0.757
- relative viability ([19]; first compound 0.4 µM): 0.723
- relative viability ([19]; first compound 1.265 µM): 0.703
- relative viability ([19]; first compound 4 µM): 0.628
- relative viability ([20]; first compound 0.04 µM): 0.624
- relative viability ([20]; first compound 0.1265 µM): 0.259
- relative viability ([20]; first compound 0.4 µM): 0.245
- relative viability ([20]; first compound 1.265 µM): 0.195
- relative viability ([20]; first compound 4 µM): 0.2
- relative viability ([21]; first compound 0.04 µM): 1.05
- relative viability ([21]; first compound 0.1265 µM): 0.877
- relative viability ([21]; first compound 0.4 µM): 0.909
- relative viability ([21]; first compound 1.265 µM): 0.844
- relative viability ([21]; first compound 4 µM): 0.993
- relative viability ([22]; first compound 0.04 µM): 1.04
- relative viability ([22]; first compound 0.1265 µM): 1.01
- relative viability ([22]; first compound 0.4 µM): 1.05
- relative viability ([22]; first compound 1.265 µM): 0.849
- relative viability ([22]; first compound 4 µM): 0.353
